Data from PubChem BioAssay AID1259411 (Chemical Carcinogenesis Research Information System (CCRIS), 2018).
Calls of active or inactive are those of the source. No rule for the calls is given here.

Test system: rodent carcinogenicity bioassays, tumor incidence
Assay: CCRIS carcinogenicity studies
Excerpt: The CCRIS database contains chemical records with carcinogenicity, mutagenicity, tumor promotion, and tumor inhibition test results. It was developed by the National Cancer Institute (NCI). Data are derived from studies cited in primary journals, current awareness tools, NCI reports, and other sources. Test results have been reviewed by experts in carcinogenesis and mutagenesis.
CCRIS provides historical information from the years 1985 - 2011. It is no longer updated.
This is an archive assay for CCRIS carcinogenicity studies.

Measured: carcinogen call

ClCC(Cl)CCl
active: Species: GUPPIE, Strain/Sex: FEMALE, Route: AQUARIUM WATER, Dose: 0, 4.5, 9, 18 MG/L FOR 9 MO THEN IN CLEAN WATER FOR 7 MO (STUDY DURATION: 16 MO), Dose: 0, 4.5, 9, 18 MG/L FOR 9 MO THEN IN CLEAN WATER FOR 7 MO (STUDY DURATION: 16 MO), Tumor Site: Type of Lesion: LIVER: CHOLANGIOCARCINOMA, HEPATOCELLULAR ADENOMA OR CARCINOMA active; positive | Species: GUPPIE, Strain/Sex: FEMALE, Route: AQUARIUM WATER, Dose: 0, 4.5, 9, 18 MG/L FOR 16 MO (STUDY DURATION: 16 MO), Dose: 0, 4.5, 9, 18 MG/L FOR 16 MO (STUDY DURATION: 16 MO), Tumor Site: Type of Lesion: LIVER: HEPATOCELLULAR ADENOMA OR CARCINOMA, CHOLANGIOCARCINOMA active; positive | Species: GUPPIE, Strain/Sex: MALE, Route: AQUARIUM WATER, Dose: 0, 4.5, 9, 18 MG/L FOR 9 MO THEN IN CLEAN WATER FOR 7 MO (STUDY DURATION: 16 MO), Dose: 0, 4.5, 9, 18 MG/L FOR 9 MO THEN IN CLEAN WATER FOR 7 MO (STUDY DURATION: 16 MO), Tumor Site: Type of Lesion: LIVER: HEPATOCELLULAR ADENOMA OR CARCINOMA active; positive | Species: GUPPIE, Strain/Sex: MALE, Route: AQUARIUM WATER, Dose: 0, 4.5, 9, 18 MG/L FOR 16 MO (STUDY DURATION: 16 MO), Dose: 0, 4.5, 9, 18 MG/L FOR 16 MO (STUDY DURATION: 16 MO), Tumor Site: Type of Lesion: LIVER: HEPATOCELLULAR ADENOMA OR CARCINOMA active; positive | Species: MEDAKA, Strain/Sex: FEMALE, Route: AQUARIUM WATER, Dose: 0, 4.5, 9, 18 MG/L FOR 9 MO THEN IN CLEAN WATER FOR 4 MO (STUDY DURATION: 13 MO), Dose: 0, 4.5, 9, 18 MG/L FOR 9 MO THEN IN CLEAN WATER FOR 4 MO (STUDY DURATION: 13 MO), Tumor Site: Type of Lesion: LIVER: CHOLANGIOCARCINOMA, HEPATOCELLULAR ADENOMA OR CARCINOMA, GALL BLADDER: ADENOMA active; positive | Species: MEDAKA, Strain/Sex: FEMALE, Route: AQUARIUM WATER, Dose: 0, 4.5, 9, 18 MG/L FOR 13 MO (STUDY DURATION: 13 MO), Dose: 0, 4.5, 9, 18 MG/L FOR 13 MO (STUDY DURATION: 13 MO), Tumor Site: Type of Lesion: LIVER: CHOLANGIOCARCINOMA, HEPATOCELLULAR ADENOMA OR CARCINOMA, HEPATOCHOLANGIOCARCINOMA, GALL BLADDER: ADENOMA active; positive | Species: MEDAKA, Strain/Sex: MALE, Route: AQUARIUM WATER, Dose: 0, 4.5, 9, 18 MG/L FOR 9 MO THEN IN CLEAN WATER FOR 4 MO (STUDY DURATION: 13 MO), Dose: 0, 4.5, 9, 18 MG/L FOR 9 MO THEN IN CLEAN WATER FOR 4 MO (STUDY DURATION: 13 MO), Tumor Site: Type of Lesion: LIVER: CHOLANGIOCARCINOMA, HEPATOCELLULAR ADENOMA OR CARCINOMA, GALL BLADDER: ADENOMA active; positive | Species: MEDAKA, Strain/Sex: MALE, Route: AQUARIUM WATER, Dose: 0, 4.5, 9, 18 MG/L FOR 13 MO (STUDY DURATION: 13 MO), Dose: 0, 4.5, 9, 18 MG/L FOR 13 MO (STUDY DURATION: 13 MO), Tumor Site: Type of Lesion: LIVER: CHOLANGIOCARCINOMA, HEPATOCELLULAR ADENOMA OR CARCINOMA, GALL BLADDER: ADENOMA, HEPATOCHOLANGIOCARCINOMA active; positive | Species: MOUSE, Strain/Sex: B6C3F1/FEMALE, Route: GAVAGE, Dose: 0, 6, 20, 60 MG/KG BW IN CORN OIL 5 D/WK FOR 104 WK (STUDY DURATION: 2 YR), Dose: 0, 6, 20, 60 MG/KG BW IN CORN OIL 5 D/WK FOR 104 WK (STUDY DURATION: 2 YR), Tumor Site: Type of Lesion: HARDERIAN GLAND: ADENOMA, LIVER: HEPATOCELLULAR ADENOMA, PHARYNX: SQUAMOUS CELL CARCINOMA, FORESTOMACH: SQUAMOUS CELL PA, Tumor Site: Type of Lesion: HARDERIAN GLAND: ADENOMA, LIVER: HEPATOCELLULAR ADENOMA, PHARYNX: SQUAMOUS CELL CARCINOMA, FORESTOMACH: SQUAMOUS CELL PA active; positive | Species: MOUSE, Strain/Sex: B6C3F1/MALE, Route: GAVAGE, Dose: 0, 6, 20, 60 MG/KG BW IN CORN OIL 5 D/WK FOR 104 WK (STUDY DURATION: 2 YR), Dose: 0, 6, 20, 60 MG/KG BW IN CORN OIL 5 D/WK FOR 104 WK (STUDY DURATION: 2 YR), Tumor Site: Type of Lesion: HARDERIAN GLAND: ADENOMA, LIVER: HEPATOCELLULAR ADENOMA, FORESTOMACH: SQUAMOUS CELL PAPILLOMA, SQUAMOUS CELL CARCINOMA, Tumor Site: Type of Lesion: HARDERIAN GLAND: ADENOMA, LIVER: HEPATOCELLULAR ADENOMA, FORESTOMACH: SQUAMOUS CELL PAPILLOMA, SQUAMOUS CELL CARCINOMA active; positive | Species: RAT, Strain/Sex: F344/FEMALE, Route: GAVAGE, Dose: 0, 3, 10, 30 MG/KG BW IN CORN OIL 5 D/WK FOR 104 WK (STUDY DURATION: 2 YR), Dose: 0, 3, 10, 30 MG/KG BW IN CORN OIL 5 D/WK FOR 104 WK (STUDY DURATION: 2 YR), Tumor Site: Type of Lesion: CLITORAL GLAND: ADENOMA, CARCINOMA, MAMMARY GLAND: CARCINOMA, PHARYNX: SQUAMOUS CELL CARCINOMA, FORESTOMACH: SQUAMOUS CE, Tumor Site: Type of Lesion: CLITORAL GLAND: ADENOMA, CARCINOMA, MAMMARY GLAND: CARCINOMA, PHARYNX: SQUAMOUS CELL CARCINOMA, FORESTOMACH: SQUAMOUS CE active; positive | Species: RAT, Strain/Sex: F344/MALE, Route: GAVAGE, Dose: 0, 3, 10, 30 MG/KG BW IN CORN OIL 5 D/WK FOR 104 WK (STUDY DURATION: 2 YR), Dose: 0, 3, 10, 30 MG/KG BW IN CORN OIL 5 D/WK FOR 104 WK (STUDY DURATION: 2 YR), Tumor Site: Type of Lesion: KIDNEY (RENAL TUBULE): ADENOMA, PANCREAS: ADENOMA, PHARYNX: SQUAMOUS CELL CARCINOMA, PREPUTIAL GLAND: ADENOMA, CARCINOMA, Tumor Site: Type of Lesion: KIDNEY (RENAL TUBULE): ADENOMA, PANCREAS: ADENOMA, PHARYNX: SQUAMOUS CELL CARCINOMA, PREPUTIAL GLAND: ADENOMA, CARCINOMA active; positive

O=NN(CCO)CCO
active: Species: HAMSTER, Route: SUBCUTANEOUS, Tumor Site: Type of Lesion: LIVER, INJECTION SITE, NASAL CAVITY, TRACHEA, Tumor Site: Type of Lesion: LIVER, INJECTION SITE, NASAL CAVITY, TRACHEA active; positive | Species: HAMSTER, Strain/Sex: SYRIAN/FEMALE, Route: SUBCUTANEOUS, Dose: 0, 250, 500, 1000 MG/KG IN SALINE 1/WK FOR DURATION OF STUDY (STUDY DURATION: 41-59 WK), Dose: 0, 250, 500, 1000 MG/KG IN SALINE 1/WK FOR DURATION OF STUDY (STUDY DURATION: 41-59 WK), Tumor Site: Type of Lesion: NASAL CAVITY: ADENOCARCINOMA, TRACHEA: PAPILLARY POLYP, LARYNX: PAPILLARY POLYP, Tumor Site: Type of Lesion: NASAL CAVITY: ADENOCARCINOMA, TRACHEA: PAPILLARY POLYP, LARYNX: PAPILLARY POLYP active; positive | Species: HAMSTER, Strain/Sex: SYRIAN/MALE, Route: SUBCUTANEOUS, Dose: 0, 250, 500, 1000 MG/KG IN SALINE 1/WK FOR DURATION OF STUDY (STUDY DURATION: 45-54 WK), Dose: 0, 250, 500, 1000 MG/KG IN SALINE 1/WK FOR DURATION OF STUDY (STUDY DURATION: 45-54 WK), Tumor Site: Type of Lesion: NASAL CAVITY: ADENOCARCINOMA, TRACHEA: PAPILLARY POLYP, LARYNX: PAPILLARY POLYP, Tumor Site: Type of Lesion: NASAL CAVITY: ADENOCARCINOMA, TRACHEA: PAPILLARY POLYP, LARYNX: PAPILLARY POLYP active; positive | Species: MOUSE, Strain/Sex: STRAIN-A/FEMALE, Route: ORAL, Dose: 0, 0.2 UMOL/ML IN DRINKING WATER FOR 10 WK (TOTAL DOSE: 0, 55 UMOL) FOLLOWED BY TAP WATER FOR 20 WK (STUDY DURATION: 30, Tumor Site: Type of Lesion: LUNG: TUMORS active; positive | Species: RAT, Route: ORAL, Tumor Site: Type of Lesion: KIDNEY, LIVER active; positive | Species: RAT, Strain/Sex: F344/FEMALE, Route: ORAL, Dose: 0, 150 MG/L IN DRINKING WATER 5 D/WK FOR 50 WK (TOTAL DOSE: 0; 5.6 MMOL) (STUDY DURATION: 124 WK), Dose: 0, 150 MG/L IN DRINKING WATER 5 D/WK FOR 50 WK (TOTAL DOSE: 0; 5.6 MMOL) (STUDY DURATION: 124 WK), Tumor Site: Type of Lesion: LIVER: HEPATOCELLULAR TUMOR active; positive
